Laboratory results: patent US11286228B2, “Stilbene derivative and method for preparing same” (Ozchela Inc., priority 2016, dated 2022)
Read-outs that look alike come from different tables or passages of the source.

Assays:
hepatitis C virus = assay: Antiviral activity in HCV replicon cells (Renilla luciferase); assay type: cell-based; details: Hepatitis C virus, read-out: Test Example 3: antiviral activity (EC50)
Description: The antiviral activity of the stilbene derivatives on hepatitis C virus was measured. The replicon cells that stably replicate the hepatitis C virus genome were attached to a culture plate and cultured in a CO2 incubator at 37° C. for 24 hr. The replicon cells cultured for one day were washed with a PBS solution, treated with the compounds of the present invention, and then cultured for 72 hr. The stilbene derivative-treated replicon cells were washed with a cold PBS solution and added with 20 μL of a cell lysis solution so that the cells were lysed in ice for 20 min. 100 μL of a Renilla luciferase substrate was added thereto, after which the luminescence thereof was measured and thus the amount of the hepatitis C virus genome was estimated. The amount of the hepatitis C virus genome in the stilbene derivative-treated replicon cells according to the present invention relative to the amount of the hepatitis C virus genome in dimethylsulfoxide (DMSO)-treated replicon cells is shown.
Compounds 1 to 155 of Tables 1 to 10 may be grouped as follows based on the antiviral activity (EC50) values: […]

cyclophilin = assay: Cis-trans isomerase inhibitory activity (chymotrypsin-coupled Suc-AAPF-pNA cleavage, absorbance 390 nm); assay type: biochemical; details: cyclophilin, chymotrypsin, Suc-AAPF-pNA; read-out: Test Example 1: cis-trans isomerase inhibitory activity (IC50)
Text: Chymotrypsin cleaves a trans-type alanine-proline peptide bond. When Suc-AAPF-pNA (a peptide substrate) and chymotrypsin are mixed, the trans-type peptide substrate is cleaved and the cis-type peptide substrate remains. The remaining cis-type peptide substrate is converted into a trans form by a cis-trans isomerase and is then cleaved again by chymotrypsin. When the cis-trans isomerase is present, chymotrypsin is able to cleave a larger amount of trans-type peptide substrate within a predetermined period of time, from which the activity of the cis-trans isomerase may be determined. The amount of the cleaved trans-type peptide substrate is measured using absorbance at 390 nm. Cyclophilin has cis-trans isomerase activity, and accelerates the cleavage of trans-type peptide substrate by chymotrypsin. When the stilbene derivatives of the present invention were treated together with cyclophilin, the cleavage of the peptide substrate by chymotrypsin was not observed to accelerate. Thereby, the stilbene derivatives of the invention can be concluded to inhibit the activity of cyclophilin.

[1] = test system: mitochondria obtained from hepatocytes; assay: Inhibitory activity on calcium-induced mitochondrial swelling (absorbance 520 nm); details: Hepatocyte; calcium-induced swelling of extracted mitochondria; read-out: Test Example 4: inhibiting mitochondrial swelling (IC50)
Text: Cyclophilin is a key protein for forming permeability transition pores (PTP) in mitochondria. When permeability transition pores are formed, mitochondria swell, whereby the outer membrane thereof ruptures and thus cell death progresses. Such mitochondrial dysfunction causes many diseases including neurodegenerative diseases, cancer, and the like. Cyclosporine, a known cyclophilin inhibitor, is capable of preventing the formation of permeability transition pores to thus suppress mitochondrial swelling.
The mitochondrial swelling test was performed as follows. Specifically, the hepatocytes were disrupted using a Dounce tissue grinder. The disrupted cells were centrifuged at 700×g for 10 min and the supernatant was transferred into a new tube. The supernatant was centrifuged at 12,000×g for 15 min, thereby obtaining mitochondria.
When the extracted mitochondria were added with calcium, they swelled, which may be observed by measuring the absorbance at 520 nm. The stilbene derivatives are effective at inhibiting mitochondrial swelling due to calcium.
The activity of Compounds 1 to 155 of Tables 1 to 10 on inhibiting mitochondrial swelling may be determined based on IC50 values, and may be grouped as follows: […]

[2] = HCV replicon cells, 72 hr, Renilla luciferase, relative to DMSO

Row | Structure (SMILES) | EC50 (hepatitis C virus; [2]) | IC50 (cyclophilin) | IC50 [1] | EC50 (hepatitis C virus; 72 h)
1 | N#CC(=Cc1ccccc1CCC1CCCCC1)c1ccc([N+](=O)[O-])cc1 [Compound 39] | < 0.5 µM | ≤ 0.02 µM | < 5 µM | 
2 | CN(C)CCOc1ccccc1C=C(C#N)c1ccc([N+](=O)[O-])cc1 [Compound 28] | 5 to 50 µM | 0.2 to 2 µM | 50 to 500 µM | 
3 | CC(C)(C)c1ccc(C(C#N)=Cc2ccccc2C(=O)O)cc1 [Compound 10] | 0.5 to 5 µM | 0.02 to 0.2 µM | 5 to 50 µM | 
4 | CC(C)CCOc1cccc(C=C(C#N)c2ccc([N+](=O)[O-])cc2)c1 [Compound 32] | 5 to 50 µM | 0.2 to 2 µM | 50 to 500 µM | 
5 | CCCCOC(=O)c1cc2ccccc2cc1C=Cc1ccc(CC(C)(C)C)cc1 [Compound 142] | 0.5 to 5 µM | 0.02 to 0.2 µM | 5 to 50 µM | 
6 | COc1ccccc1C=C(C#N)c1ccc(C)c(C)c1 [Compound 12] | 5 to 50 µM | 0.2 to 2 µM | 50 to 500 µM | 
7 | N#CC(=Cc1ccccc1CCCc1ccccc1)c1ccc([N+](=O)[O-])cc1 [Compound 42] | 5 to 50 µM | 0.2 to 2 µM | 50 to 500 µM | 
8 | CCCCOC(=O)c1ccccc1C=C(N)c1ccc(Cc2ccccc2)cc1 [Compound 111] |  | 0.02 to 0.2 µM | 5 to 50 µM | 0.5 to 5 µM
9 | CC(C)(C)Cc1ccc(C(N)=Cc2ccccc2C(=O)OCc2ccccc2)cc1 [Compound 106] | 0.5 to 5 µM | 0.02 to 0.2 µM | 5 to 50 µM | 
10 | Cc1cccc(C=Cc2ccc(CC(C)(C)C)cc2)c1C(=O)O [Compound 139] | < 0.5 µM | ≤ 0.02 µM | < 5 µM | 
11 | CCCCOC(=O)c1cc(C)ccc1C=C(N)c1ccc(CC(C)(C)C)cc1 [Compound 101] | 0.5 to 5 µM | 0.02 to 0.2 µM | 5 to 50 µM | 
12 | CCCCOC(=O)c1ccccc1C=C(C)c1ccc(CC(C)CC)cc1 (stereo not drawn) [Compound 94] | 0.5 to 5 µM | 0.02 to 0.2 µM | 5 to 50 µM | 
13 | COc1ccccc1CCc1ccccc1C=C(C#N)c1ccc([N+](=O)[O-])cc1 [Compound 49] | 5 to 50 µM | 0.2 to 2 µM | 50 to 500 µM | 
14 | CC(C)C(C)Cc1ccc(C(C#N)=Cc2ccccc2C(=O)O)cc1 (stereo not drawn) [Compound 58] |  | 0.02 to 0.2 µM | 5 to 50 µM | 0.5 to 5 µM
15 | COc1ccccc1C=C(C#N)c1ccc(C(C)C)cc1 [Compound 6] | 5 to 50 µM | 0.2 to 2 µM | 50 to 500 µM | 
16 | CCCCOC(=O)c1ccccc1C=Cc1ccc(CC(C)(C)C)cn1 [Compound 143] | 0.5 to 5 µM | 0.02 to 0.2 µM | 5 to 50 µM | 
17 | CCCCOC(=O)c1ccccc1C=Cc1ccc(Cc2ccccc2)cc1 [Compound 81] |  | 0.02 to 0.2 µM | 5 to 50 µM | 0.5 to 5 µM
18 | CCCCOC(=O)c1ccccc1C=C(C)c1ccc(CC2CCCC2)cc1 [Compound 95] | 0.5 to 5 µM | 0.02 to 0.2 µM | 5 to 50 µM | 
19 | CCC(C)Cc1ccc(C=Cc2ccccc2C(=O)OC)cc1 (stereo not drawn) [Compound 125] | 0.5 to 5 µM | 0.02 to 0.2 µM | 5 to 50 µM | 
20 | CCCCOC(=O)c1ccccc1C=C(C)c1ccc(CC2CCCCC2)cc1 [Compound 96] | 0.5 to 5 µM | 0.02 to 0.2 µM | 5 to 50 µM | 
21 | CC(=Cc1ccccc1C(=O)OC1CCCCC1)c1ccc(CC(C)(C)C)cc1 [Compound 93] | 0.5 to 5 µM | 0.02 to 0.2 µM | 5 to 50 µM | 
22 | CCCOC(=O)c1ccccc1C=Cc1ccc(CC(C)(C)C)cc1 [Compound 71] | < 0.5 µM | ≤ 0.02 µM | < 5 µM | 
23 | CC(C)(C)Cc1ccc(C=Cc2ccccc2C(=O)OCC2CCCCC2)cc1 [Compound 74] | < 0.5 µM | ≤ 0.02 µM | < 5 µM | 
24 | CCCCOC(=O)c1ccccc1C=Cc1ccc(CC(C)CC)cc1 (stereo not drawn) [Compound 78] | 0.5 to 5 µM | 0.02 to 0.2 µM | 5 to 50 µM | 
